The kinase profiling compilation of Christmann-Franck et al. (2016)

Key:
Experiment in all cases: KINOMEscan competition binding
Settings in all cases: compound 10.0 µM
CDK16 (human) = CDK16 (human) (UniProt Q00536)
MAPK8 (human) = MAPK8 (human) (UniProt P45983)
CLK1 (human) = CLK1 (human) (UniProt P49759)
STK16 (human) = STK16 (human) (UniProt O75716)
PIP5K1A (human) = PIP5K1A (human) (UniProt Q99755)
RIOK3 (human) = RIOK3 (human) (UniProt O14730)
STK11 (human) = STK11 (human) (UniProt Q15831)
BRSK2 (human) = BRSK2 (human) (UniProt Q8IWQ3)
PDGFRB (human) = PDGFRB (human) (UniProt P09619)
MKNK2 (human) = MKNK2 (human) (UniProt Q9HBH9)
TGFBR2 (human) = TGFBR2 (human) (UniProt P37173)
TNK1 (human) = TNK1 (human) (UniProt Q13470)
MYLK4 (human) = MYLK4 (human) (UniProt Q86YV6)
MYLK4 (human), sequence (Q86YV6 whole entry, looked up): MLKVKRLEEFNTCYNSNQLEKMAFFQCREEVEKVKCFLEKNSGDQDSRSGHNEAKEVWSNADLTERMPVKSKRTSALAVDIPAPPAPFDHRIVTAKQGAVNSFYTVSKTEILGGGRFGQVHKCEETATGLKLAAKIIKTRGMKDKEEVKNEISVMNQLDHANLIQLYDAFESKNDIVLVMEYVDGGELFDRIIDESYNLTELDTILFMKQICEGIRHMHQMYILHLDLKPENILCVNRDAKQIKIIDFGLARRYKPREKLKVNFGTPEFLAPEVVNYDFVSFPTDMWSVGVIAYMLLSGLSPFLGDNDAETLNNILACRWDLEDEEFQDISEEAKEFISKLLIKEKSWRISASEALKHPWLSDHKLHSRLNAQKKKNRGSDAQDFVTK

[1] = test system: FLT3 (human), P36888 [D835Y]
[2] = test system: FLT3 (human), P36888 [D835H]
[3] = test system: FLT3 (human), P36888 [ITD]
[4] = test system: FLT3 (human), P36888 [K663Q]
CLK4 (human) = CLK4 (human) (UniProt Q9HAZ1)
CLK4 (human), sequence (Q9HAZ1 whole entry, looked up): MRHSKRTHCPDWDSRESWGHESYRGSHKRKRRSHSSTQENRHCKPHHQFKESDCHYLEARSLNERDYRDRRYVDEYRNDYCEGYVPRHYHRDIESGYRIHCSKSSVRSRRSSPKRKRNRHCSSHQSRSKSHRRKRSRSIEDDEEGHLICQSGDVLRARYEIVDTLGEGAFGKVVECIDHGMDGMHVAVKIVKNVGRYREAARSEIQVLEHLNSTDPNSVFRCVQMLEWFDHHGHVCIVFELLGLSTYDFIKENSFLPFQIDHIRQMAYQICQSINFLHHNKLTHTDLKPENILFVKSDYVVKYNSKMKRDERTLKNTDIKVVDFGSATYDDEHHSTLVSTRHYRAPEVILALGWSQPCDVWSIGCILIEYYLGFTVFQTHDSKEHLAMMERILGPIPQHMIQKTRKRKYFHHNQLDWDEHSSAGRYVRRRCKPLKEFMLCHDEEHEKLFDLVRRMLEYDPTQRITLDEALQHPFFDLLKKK

PIM1 (human) = PIM1 (human) (UniProt P11309)
PIM1 (human), sequence (P11309 whole entry, looked up): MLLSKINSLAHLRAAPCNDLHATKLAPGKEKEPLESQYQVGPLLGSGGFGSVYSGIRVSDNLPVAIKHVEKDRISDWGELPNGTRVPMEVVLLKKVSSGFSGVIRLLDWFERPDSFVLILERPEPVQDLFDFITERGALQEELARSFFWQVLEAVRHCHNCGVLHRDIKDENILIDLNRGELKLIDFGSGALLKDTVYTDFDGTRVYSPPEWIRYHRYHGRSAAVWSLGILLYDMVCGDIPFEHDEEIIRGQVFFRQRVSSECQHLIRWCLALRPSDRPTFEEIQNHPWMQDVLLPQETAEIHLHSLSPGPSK

MKNK1 (human) = MKNK1 (human) (UniProt Q9BUB5)
CIT (human) = CIT (human) (UniProt O14578)
PLK4 (human) = PLK4 (human) (UniProt O00444)
MYLK3 (human) = MYLK3 (human) (UniProt Q32MK0)
MYLK3 (human), sequence (Q32MK0 whole entry, looked up): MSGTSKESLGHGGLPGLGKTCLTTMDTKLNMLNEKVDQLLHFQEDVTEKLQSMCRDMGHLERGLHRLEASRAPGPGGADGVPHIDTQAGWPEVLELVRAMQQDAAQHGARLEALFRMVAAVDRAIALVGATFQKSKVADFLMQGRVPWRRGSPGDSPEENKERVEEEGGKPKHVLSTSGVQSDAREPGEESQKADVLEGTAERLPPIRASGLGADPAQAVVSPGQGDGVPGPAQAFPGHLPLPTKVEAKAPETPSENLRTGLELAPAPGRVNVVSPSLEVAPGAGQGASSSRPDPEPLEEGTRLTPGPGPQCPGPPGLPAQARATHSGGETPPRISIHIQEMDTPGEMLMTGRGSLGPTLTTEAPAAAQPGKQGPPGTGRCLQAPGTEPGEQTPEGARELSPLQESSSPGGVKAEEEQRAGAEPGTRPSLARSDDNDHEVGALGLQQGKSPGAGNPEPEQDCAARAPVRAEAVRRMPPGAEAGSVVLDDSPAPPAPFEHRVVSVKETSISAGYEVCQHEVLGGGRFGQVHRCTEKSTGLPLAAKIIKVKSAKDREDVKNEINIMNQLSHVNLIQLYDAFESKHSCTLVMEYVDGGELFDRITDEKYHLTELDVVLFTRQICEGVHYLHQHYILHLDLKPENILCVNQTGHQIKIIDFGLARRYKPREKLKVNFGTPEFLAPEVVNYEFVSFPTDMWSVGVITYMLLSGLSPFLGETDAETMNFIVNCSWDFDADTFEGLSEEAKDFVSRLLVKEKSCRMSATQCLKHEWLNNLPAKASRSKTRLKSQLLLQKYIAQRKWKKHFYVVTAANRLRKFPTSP

DAPK1 (human) = DAPK1 (human) (UniProt P53355)
DAPK1 (human), sequence (P53355 whole entry, looked up): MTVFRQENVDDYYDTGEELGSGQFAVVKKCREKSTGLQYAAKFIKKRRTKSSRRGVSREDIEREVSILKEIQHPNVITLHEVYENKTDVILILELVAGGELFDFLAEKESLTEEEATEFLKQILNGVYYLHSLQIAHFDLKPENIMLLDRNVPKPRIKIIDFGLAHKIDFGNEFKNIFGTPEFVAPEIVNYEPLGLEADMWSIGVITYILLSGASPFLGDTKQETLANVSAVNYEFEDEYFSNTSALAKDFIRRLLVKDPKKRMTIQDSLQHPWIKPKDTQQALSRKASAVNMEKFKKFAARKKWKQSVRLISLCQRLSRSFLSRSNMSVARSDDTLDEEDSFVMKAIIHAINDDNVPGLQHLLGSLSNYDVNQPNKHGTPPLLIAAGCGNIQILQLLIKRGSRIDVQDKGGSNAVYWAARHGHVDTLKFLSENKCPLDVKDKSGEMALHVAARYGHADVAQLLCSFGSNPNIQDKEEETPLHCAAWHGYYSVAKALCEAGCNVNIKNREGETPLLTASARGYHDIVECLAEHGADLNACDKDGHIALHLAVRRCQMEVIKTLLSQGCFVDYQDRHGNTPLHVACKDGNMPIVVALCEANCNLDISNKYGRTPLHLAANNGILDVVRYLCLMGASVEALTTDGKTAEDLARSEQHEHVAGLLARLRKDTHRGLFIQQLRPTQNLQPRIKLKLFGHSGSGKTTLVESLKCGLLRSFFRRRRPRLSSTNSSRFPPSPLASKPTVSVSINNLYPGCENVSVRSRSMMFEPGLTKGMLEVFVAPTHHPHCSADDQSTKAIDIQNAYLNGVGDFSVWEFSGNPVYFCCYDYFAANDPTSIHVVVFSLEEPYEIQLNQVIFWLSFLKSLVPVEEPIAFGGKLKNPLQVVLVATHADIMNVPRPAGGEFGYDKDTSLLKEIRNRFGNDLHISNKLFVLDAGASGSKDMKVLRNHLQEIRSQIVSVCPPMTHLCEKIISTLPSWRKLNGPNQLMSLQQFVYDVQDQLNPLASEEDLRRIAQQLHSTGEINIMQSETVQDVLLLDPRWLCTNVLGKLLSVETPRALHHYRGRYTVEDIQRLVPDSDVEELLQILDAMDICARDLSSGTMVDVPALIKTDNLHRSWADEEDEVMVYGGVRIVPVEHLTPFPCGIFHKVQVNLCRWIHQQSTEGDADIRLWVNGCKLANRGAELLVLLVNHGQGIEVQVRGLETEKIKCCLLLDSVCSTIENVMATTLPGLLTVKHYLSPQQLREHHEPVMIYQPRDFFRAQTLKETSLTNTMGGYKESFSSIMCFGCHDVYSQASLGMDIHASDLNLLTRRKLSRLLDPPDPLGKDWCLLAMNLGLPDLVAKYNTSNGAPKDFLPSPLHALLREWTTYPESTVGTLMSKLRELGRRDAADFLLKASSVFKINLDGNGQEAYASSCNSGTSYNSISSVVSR

[5] = biological target: JAK1 JH2 pseudokinase (human) (UniProt P23458)
FLT3 (human) = FLT3 (human) (UniProt P36888)
RPS6KA6 KD2 (human) = RPS6KA6 KD2 (human) (UniProt Q9UK32)
NEK2 (human) = NEK2 (human) (UniProt P51955)
DCLK3 (human) = DCLK3 (human) (UniProt Q9C098)
MAP4K2 (human) = MAP4K2 (human) (UniProt Q12851)
ULK2 (human) = ULK2 (human) (UniProt Q8IYT8)
RPS6KA4 KD2 (human) = RPS6KA4 KD2 (human) (UniProt O75676)
RIPK4 (human) = RIPK4 (human) (UniProt P57078)
MELK (human) = MELK (human) (UniProt Q14680)
CLK3 (human) = CLK3 (human) (UniProt P49761)
CSNK1D (human) = CSNK1D (human) (UniProt P48730)
DMPK (human) = DMPK (human) (UniProt Q09013)

PIP5K1A (human), sequence (Q99755 whole entry, looked up): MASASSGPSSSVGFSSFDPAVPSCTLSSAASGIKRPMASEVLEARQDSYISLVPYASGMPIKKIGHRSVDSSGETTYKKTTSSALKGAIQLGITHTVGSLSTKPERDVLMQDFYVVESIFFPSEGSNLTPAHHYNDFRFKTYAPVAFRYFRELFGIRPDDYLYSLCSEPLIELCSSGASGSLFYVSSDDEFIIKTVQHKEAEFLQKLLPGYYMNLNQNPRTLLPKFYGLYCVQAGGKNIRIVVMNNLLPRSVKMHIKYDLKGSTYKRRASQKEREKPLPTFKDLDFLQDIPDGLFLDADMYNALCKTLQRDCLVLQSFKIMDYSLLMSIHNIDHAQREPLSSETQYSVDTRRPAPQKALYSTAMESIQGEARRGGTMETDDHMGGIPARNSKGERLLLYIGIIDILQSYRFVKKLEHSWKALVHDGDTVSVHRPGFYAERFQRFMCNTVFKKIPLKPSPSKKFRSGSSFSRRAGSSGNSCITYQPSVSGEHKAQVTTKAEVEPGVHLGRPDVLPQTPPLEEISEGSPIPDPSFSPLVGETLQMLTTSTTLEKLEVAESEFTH
STK16 (human), sequence (O75716 whole entry, looked up): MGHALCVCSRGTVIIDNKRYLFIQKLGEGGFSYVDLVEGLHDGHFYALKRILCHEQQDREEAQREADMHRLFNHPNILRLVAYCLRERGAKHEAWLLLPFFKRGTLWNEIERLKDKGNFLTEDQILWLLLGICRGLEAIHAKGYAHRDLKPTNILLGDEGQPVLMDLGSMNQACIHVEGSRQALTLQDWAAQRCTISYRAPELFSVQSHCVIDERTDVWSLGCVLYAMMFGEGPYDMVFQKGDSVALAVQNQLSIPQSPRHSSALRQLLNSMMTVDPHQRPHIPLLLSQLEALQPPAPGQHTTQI
CLK1 (human), sequence (P49759 whole entry, looked up): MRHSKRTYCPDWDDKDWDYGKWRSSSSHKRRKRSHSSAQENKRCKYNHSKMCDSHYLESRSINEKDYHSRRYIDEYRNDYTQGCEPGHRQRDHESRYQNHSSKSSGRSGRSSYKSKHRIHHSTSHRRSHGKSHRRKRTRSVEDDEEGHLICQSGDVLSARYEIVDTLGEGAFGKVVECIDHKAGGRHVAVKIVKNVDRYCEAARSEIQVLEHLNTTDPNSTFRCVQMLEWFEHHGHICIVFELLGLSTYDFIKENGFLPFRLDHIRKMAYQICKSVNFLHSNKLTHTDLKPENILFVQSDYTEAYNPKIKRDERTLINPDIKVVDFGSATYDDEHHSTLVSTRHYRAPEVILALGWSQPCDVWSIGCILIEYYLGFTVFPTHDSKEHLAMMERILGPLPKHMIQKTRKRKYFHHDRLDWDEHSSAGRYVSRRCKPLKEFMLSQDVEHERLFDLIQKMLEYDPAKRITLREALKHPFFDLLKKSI

| Structure (SMILES) | kinase still bound, per cent of control (CDK16 (human)) | kinase still bound, per cent of control (MAPK8 (human)) | kinase still bound, per cent of control (CLK1 (human)) | kinase still bound, per cent of control (STK16 (human)) | kinase still bound, per cent of control (PIP5K1A (human)) | kinase still bound, per cent of control (RIOK3 (human)) | kinase still bound, per cent of control (STK11 (human)) | kinase still bound, per cent of control (MKNK2 (human)) | kinase still bound, per cent of control (TGFBR2 (human)) | kinase still bound, per cent of control (TNK1 (human)) | kinase still bound, per cent of control (MYLK4 (human)) | kinase still bound, per cent of control [1] | kinase still bound, per cent of control [2] | kinase still bound, per cent of control [3] | kinase still bound, per cent of control [4] | kinase still bound, per cent of control (CLK4 (human)) | kinase still bound, per cent of control (PIM1 (human)) | kinase still bound, per cent of control (CIT (human)) | kinase still bound, per cent of control (MYLK3 (human)) | kinase still bound, per cent of control (DAPK1 (human)) | also measured |
| --- | --- | --- | --- | --- | --- | --- | --- | --- | --- | --- | --- | --- | --- | --- | --- | --- | --- | --- | --- | --- | --- |
| O=C1NC(=S)S/C1=C\c1ccc(-c2cncc3ccccc23)o1 | 5.2% | 7% | 5.6% | 9.8% | 17% | 5.5% | 17% | 23% | 5.2% | 8.4% | 0.25% | 1.8% | 7.4% | 6.2% | 14% | 6.1% | 2.7% | 28% | 8.7% | 9.6% | kinase still bound, per cent of control (BRSK2 (human)): 29%; kinase still bound, per cent of control (PDGFRB (human)): 18%; kinase still bound, per cent of control (MKNK1 (human)): 33%; kinase still bound, per cent of control (PLK4 (human)): 0.85%; kinase still bound, per cent of control [5]: 8.5%; kinase still bound, per cent of control (FLT3 (human)): 16%; kinase still bound, per cent of control (RPS6KA6 KD2 (human)): 5.4% |
| CN1C(=O)[C@H]2CCC[C@H]2N(C2CCCC2)c2nc(Nc3ccc(C(N)=O)cc3)ncc21 | 18% | 29% | 0.9% | 4.8% | 29% |  |  | 16% |  | 2% | 30% | 2.6% | 11% | 20% | 14% | 5.2% | 6.8% | 28% | 5.5% | 3.2% | kinase still bound, per cent of control (NEK2 (human)): 13%; kinase still bound, per cent of control (DCLK3 (human)): 1.4%; kinase still bound, per cent of control (MAP4K2 (human)): 13%; kinase still bound, per cent of control (ULK2 (human)): 17%; kinase still bound, per cent of control (RPS6KA4 KD2 (human)): 0.55%; kinase still bound, per cent of control (RIPK4 (human)): 30%; kinase still bound, per cent of control (PLK4 (human)): 1.6%; kinase still bound, per cent of control [5]: 9.2%; kinase still bound, per cent of control (FLT3 (human)): 19%; kinase still bound, per cent of control (RPS6KA6 KD2 (human)): 13%; kinase still bound, per cent of control (MELK (human)): 27% |
| Nc1cccc(-c2cc(/C=C3\SC(=O)NC3=O)c[nH]c2=O)c1 |  |  | 2.1% | 9.3% | 17% | 8.6% | 19% |  | 26% |  | 2.8% |  |  |  |  | 16% | 4.8% |  | 2% | 2.2% | kinase still bound, per cent of control (CLK3 (human)): 1.2%; kinase still bound, per cent of control (MAP4K2 (human)): 30%; kinase still bound, per cent of control (ULK2 (human)): 33%; kinase still bound, per cent of control (RPS6KA4 KD2 (human)): 0.1%; kinase still bound, per cent of control (CSNK1D (human)): 23%; kinase still bound, per cent of control (DMPK (human)): 27%; kinase still bound, per cent of control (MELK (human)): 30% |
